Experimental data taken from patent publication US6525040B1, “Cyclic organoselenium compounds, their preparation and their uses” (Oxis Isle of Man, Limited, priority 1996, dated 2003).

Key:
[1] = system: TNF-α-induced E-selectin expression by endothelial cells (HUVEC); assay: Inhibition of TNF-α-induced E-selectin expression by endothelial cells (cell ELISA); format: cell-based; settings: compound 10 μM; TNF-α 1 ng/ml; 3 h 30 min incubation; human endothelial cells
Procedure: (§1) Human endothelial cells are grown under the same conditions as those described in Example 6.
(§2) When the cells are close to confluence, they are incubated for one hour in the presence or in the absence of one of the following compounds: BXT-51097 or BXT-51103. Each one of these compounds is incorporated at 10 μM in the culture medium containing 2% foetal calf serum, everything else being equal. After the removal of the culture medium, the cells are incubated in the presence or in the absence (control) of TNF-α, at 1 ng/ml, in the same culture medium as before. In the case of cells pre-treated with a compound, the medium further contains the same compound at 10 μM. After three hours and thirty minutes of incubation, the cells are washed with PBS buffer and they are fixed with 2% formaldehyde in the same buffer. The P- and E-selectin expressions on the cells are then measured by an ELISA determination by successively incubating the cells in the presence of a mouse monoclonal antibody, anti-P-selectin and anti-E-selectin respectively, and a rabbit anti-mouse anti-antibody labelled with alkaline phosphatase. The quantification is carried out upon the addition of para-nitrophenyl phosphate whose hydrolysis is followed at 405 nm.

[2] = system: TNF-α-induced interleukin 8 release by endothelial cells (HUVEC); assay: Inhibition of the TNF-α-induced release of interleukin 8 by endothelial cells (ELISA); format: cell-based; settings: compound 10 μM, TNF-α 1 ng/ml, 3 h 30 min incubation, human endothelial cells, read-out: Inhibition of TNF-α-induced IL-8 production in the culture medium
Procedure: Human endothelial cells are grown at 37° C. in multi-well plates under a water-saturated atmosphere constituted of a gaseous mixture of 95% air and 5% CO2. Their culture medium is constituted by a medium M 199 pH=7.4 containing 20% foetal calf serum, 2 mM L-glutamine, 100 U/ml penicillin, 100 μg/ml streptomycin and 1% by volume of a medium supplement containing heparin and a growth factor for these cells.
When the cells are close to confluence, they are incubated for one hour in the presence or in the absence of one of the following compounds: BXT-51097 or BXT-51103. Each one of these compounds is incorporated at 10 μM in the culture medium containing 2% foetal calf serum, everything else being equal. After removal of the culture medium, the cells are incubated in the presence or in the absence (control) of TNF-α, at 1 ng/ml, in the same culture medium as before. In the case of cells pre-treated with a compound of the invention, the medium further contains the same compound at 10 μM. After three hours and thirty minutes of incubation, the interleukin 8 (IL-8) released into the culture medium is determined by ELISA.

[3] = Glutathione peroxidase activity (NADPH-coupled, GSH/glutathione disulphide reductase); format: biochemical; settings: compound 20 μM, pH = 7.3, 37° C., [GSH] = 2 mM; for Glutathione peroxidase activity, H2O2: substrate H2O2; for Glutathione peroxidase activity, t-BuOOH: substrate t-BuOOH
Procedure: The glutathione peroxidase activity is determined by using a 50 mM HEPES buffer, pH=7.3 (at 37° C.), containing 0.2 mM DTPA, 0.144 mM NADPH, 2.2 mM reduced glutathione (GSH) and 1.1 U/ml glutathione disulphide reductase. This buffer further contains 110 U/ml catalase when hydrogen peroxide is not used as substrate.
To 1.5 ml of the buffer described above, are added 100 μl of an ethanolic stock solution of the compound tested or 100 μl of absolute ethanol (blank). Each compound is tested at a final concentration of 20 μM. The reaction medium is equilibrated for 2 minutes at 37° C. Then 50 μl of 6.6 mM tert-butyl hydroperoxide (t-BuOOH) in ultrapure water, or 3.3 mM hydrogen peroxide (H2O2) in ultrapure water are added. The glutathione peroxidase activity is determined at 37° C. by measuring the decrease of absorbance at 340 nm for 5 minutes. Said activity or initial enzymatic rate is proportional to the slope of the variation of absorbance with time.
The catalytic activity of oxygen reduction of the compounds tested corresponds to the rate of consum.p.ion of NADPH in the absence of hydroperoxide.
They are expressed in nmoles of hydroperoxide reduced per minute.

[4] = system: TNF-α-induced P-selectin expression by endothelial cells (HUVEC); assay: Inhibition of TNF-α-induced P-selectin expression by endothelial cells (cell ELISA); format: cell-based; settings: compound 10 μM; TNF-α 1 ng/ml; 3 h 30 min incubation; human endothelial cells
Procedure: as §1, §2

[5] = even in the presence of an excess of glutathione GSH; cited from earlier work

With CC1(C)CN[Se]c2ccsc21 [BXT-51103, 4,4-Dimethyl-thieno-[2,3-e]-isoselenazine] the “Inhibition of TNF-α-induced E-selectin expression” value [1] was “totally inhibited”, the inhibition at 10 µM [2] was no less than 85% and the “Glutathione peroxidase activity, H2O2” value [3] was 34.9 nmoles of hydroperoxide reduced/min. The “Glutathione peroxidase activity, t-BuOOH” value [3] was 15.5 nmoles of hydroperoxide reduced/min and the “Inhibition of TNF-α-induced P-selectin expression” value [4] was “totally inhibited”.

For CC1(C)CN[Se](=O)c2ccsc21 (stereo not drawn) [BXT-51105, 4,4-Dimethyl-thieno-[23-e]-isoselenazine-1-oxide], the “Glutathione peroxidase activity, H2O2” value [3] was 35.7 nmoles of hydroperoxide reduced/min and the “Glutathione peroxidase activity, t-BuOOH” value [3] was 13.9 nmoles of hydroperoxide reduced/min.

For CC1(C)CN[Se]c2sccc21 [BXT-51097, 4,4-Dimethyl-thieno-[3,2-e]-isoselenazine], the “Inhibition of TNF-α-induced E-selectin expression” value [1] was “totally inhibited”, the inhibition at 10 µM [2] was no less than 85% and the “Glutathione peroxidase activity, H2O2” value [3] was 39.8 nmoles of hydroperoxide reduced/min. For the same compound, the “Glutathione peroxidase activity, t-BuOOH” value [3] was 11.4 nmoles of hydroperoxide reduced/min and the “Inhibition of TNF-α-induced P-selectin expression” value [4] was “totally inhibited”.

In the case of O=c1c2ccccc2[se]n1-c1ccccc1 [ebselen, 2-phenyl-1,2-benzisoselenazolin-3-one], the Solubility in water [5] is given as “very little soluble in water”.

With CC1(C)CN[Se](=O)c2sccc21 (stereo not drawn) [BXT-51100, 4,4-Dimethyl-thieno-[3,2-e]-isoselenazine-1-oxide] the “Glutathione peroxidase activity, H2O2” value [3] was 37.1 nmoles of hydroperoxide reduced/min and the “Glutathione peroxidase activity, t-BuOOH” value [3] was 10.1 nmoles of hydroperoxide reduced/min.
